Biological target: APJ receptor (Homo sapiens (Human), UniProt P35414)
Assay: [35S]GTPγS binding assay on membranes from CHO cells stably expressing human APJ receptor
Format: biochemical
Details: membranes of CHO cells stably expressing human APJ receptor, means of several independent experiments, read-out: Activity hAPJ SPA EC50 IP
Method: The human APJ receptor was cloned by polymerase chain reaction and the gene encoding the receptor was subcloned in pFLAG-CMV™-3 expression vector (Sigma, Saint Louis, Mo. USA) in-house at Amgen. A GTPγS binding assay was performed on membranes prepared from CHO cells stably expressing human APJ receptor. The optimum experimental conditions for the concentrations of GDP, MgCl2, and NaCl in the assay buffer were initially determined. The assay was performed in assay buffer [20 mM HEPES, pH 7.5, 5 mM MgCl2, and 0.1% (w/v) BSA with 200 mM NaCl, 3 μM GDP] and membranes expressing human APJ receptor/well along with WGA PS beads. The reaction was initiated by addition of 0.2 nM [^35S]GTPγS (Perkin Elmer Life and Analytical Sciences, Waltham USA) in the absence or presence of various ligands and incubated at RT for 90 min. Nonspecific binding was determined in the presence of 100 μM GTPγS and was always less than 0.2% of total binding. All the results presented are means of several independent experiments and analyzed by non-linear regression methods using commercially available program Prism (GraphPad, San Diego, Calif.) to obtain EC50 detailed in Table 26.

Chain of APJ receptor (P35414 whole entry): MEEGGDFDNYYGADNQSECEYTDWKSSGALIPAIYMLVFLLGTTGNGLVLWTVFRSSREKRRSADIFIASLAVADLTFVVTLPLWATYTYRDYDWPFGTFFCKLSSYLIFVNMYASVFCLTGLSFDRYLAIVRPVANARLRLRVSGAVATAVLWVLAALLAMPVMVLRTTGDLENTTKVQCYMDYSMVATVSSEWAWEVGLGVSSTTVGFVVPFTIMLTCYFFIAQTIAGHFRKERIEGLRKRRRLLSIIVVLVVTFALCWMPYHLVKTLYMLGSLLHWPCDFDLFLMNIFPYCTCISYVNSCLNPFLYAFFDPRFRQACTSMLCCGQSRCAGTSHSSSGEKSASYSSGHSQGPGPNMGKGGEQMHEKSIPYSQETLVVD

## COc1cccc(OC)c1-n1c(NS(=O)(=O)[C@@H](C)Cc2ncc(Cl)cc2C#N)nnc1-c1ccco1 (mixture of isomers) [Example 18.0, (2S)-1-(5-chloro-3-cyano-2-pyridinyl)-N-(4-(2,6-dimethoxyphenyl)-5-(2-furanyl)-4H-1,2,4-triazol-3-yl)-2-propanesulfonamide and (2R)-1-(5-chloro-3-cyano-2-pyridinyl)-N-(4-(2,6-dimethoxyphenyl)-5-(2-furanyl)-4H-1,2,4-triazol-3-yl)-2-propanesulfonamide]
  EC50: 280 pM

## COc1cccc(OC)c1-n1c(NS(=O)(=O)C[C@@H](C)c2ncc(F)cn2)nnc1-c1ccco1 (mixture of isomers) [Example 129.0, (S)-N-(4-(2,6-dimethoxyphenyl)-5-(furan-2-yl)-4H-1,2,4-triazol-3-yl)-2-(5-fluoropyrimidin-2-yl)propane-1-sulfonamide and (R)-N-(4-(2,6-dimethoxyphenyl)-5-(furan-2-yl)-4H-1,2,4-triazol-3-yl)-2-(5-fluoropyrimidin-2-yl)propane-1-sulfonamide]
  EC50: 3300 pM

## COc1cccc(OC)c1-n1c(NS(=O)(=O)CCN2C(=O)N(C)CC[C@H]2C)nnc1-c1ccc(C)o1 (mixture of isomers) [Example 160.0, N-(4-(2,6-Dimethoxyphenyl)-5-(5-methyl-2-furanyl)-4H-1,2,4-triazol-3-yl)-2-((6R)-3,6-dimethyl-2-oxotetrahydro-1 (2H)-pyrimidinyl)ethanesulfonamide and N-(4-(2,6-dimethoxyphenyl)-5-(5-methyl-2-furanyl)-4H-1,2,4-triazol-3-yl)-2-((6S)-3,6-dimethyl-2-oxotetrahydro-1(2H)-pyrimidinyl)ethanesulfonamide]
  EC50: 500 pM

## COc1cccc(OC)c1-n1c(NS(=O)(=O)[C@@H](C)[C@H](O)c2cn(C)cn2)nnc1-c1ccc(C)o1.COc1cccc(OC)c1-n1c(NS(=O)(=O)[C@H](C)[C@@H](O)c2cn(C)cn2)nnc1-c1ccc(C)o1 (mixture of isomers) [Example 301.0, (1R,2S)—N-(4-(2,6-Dimethoxyphenyl)-5-(5-methyl-2-furanyl)-4H-1,2,4-triazol-3-yl)-1-hydroxy-1-(1-methyl-1H-imidazol-4-yl)-2-propanesulfonamide and (1S,2R)—N-(4-(2,6-dimethoxyphenyl)-5-(5-methyl-2-furanyl)-4H-1,2,4-triazol-3-yl)-1-hydroxy-1-(1-methyl-1H-imidazol-4-yl)-2-propanesulfonamide]
  EC50: 13000 pM

## COc1ccccc1-n1c(NS(=O)(=O)[C@@H](C)Cc2ncc(F)cn2)nnc1-c1ccco1.COc1ccccc1-n1c(NS(=O)(=O)[C@H](C)Cc2ncc(F)cn2)nnc1-c1ccco1 (mixture of isomers) [Example 310.0, (2S)-1-(5-Fluoro-2-pyrimidinyl)-N-(5-(2-furanyl)-4-(2-methoxyphenyl)-4H-1,2,4-triazol-3-yl)-2-propanesulfonamide and (2R)-1-(5-fluoro-2-pyrimidinyl)-N-(5-(2-furanyl)-4-(2-methoxyphenyl)-4H-1,2,4-triazol-3-yl)-2-propanesulfonamide]
  EC50: 83000 pM

## C[C@@H](Cc1ncc(F)cn1)S(=O)(=O)Nc1nnc(-c2ccco2)n1C1CCCCC1.C[C@H](Cc1ncc(F)cn1)S(=O)(=O)Nc1nnc(-c2ccco2)n1C1CCCCC1 (mixture of isomers) [Example 313.0, (2R)—N-(4-Cyclohexyl-5-(2-furanyl)-4H-1,2,4-triazol-3-yl)-1-(5-fluoro-2-pyrimidinyl)-2-propanesulfonamide and (2S)—N-(4-cyclohexyl-5-(2-furanyl)-4H-1,2,4-triazol-3-yl)-1-(5-fluoro-2-pyrimidinyl)-2-propanesulfonamide]
  EC50: 230000 pM

## C[C@@H](Cc1ncc(F)cn1)S(=O)(=O)Nc1nnc(-c2ccco2)n1-c1cccc2ccccc12 (mixture of isomers) [Example 314.0, (2R)-1-(5-Fluoro-2-pyrimidinyl)-N-(5-(2-furanyl)-4-(1-naphthalenyl)-4H-1,2,4-triazol-3-yl)-2-propanesulfonamide and (2S)-1-(5-fluoro-2-pyrimidinyl)-N-(5-(2-furanyl)-4-(1-naphthalenyl)-4H-1,2,4-triazol-3-yl)-2-propanesulfonamide]
  EC50: 230000 pM

## COc1ccc(-n2c(NS(=O)(=O)[C@@H](C)Cc3ncc(F)cn3)nnc2-c2ccco2)c(OC)c1 (mixture of isomers) [Example 315.0, (2R)—N-(4-(2,4-Dimethoxyphenyl)-5-(2-furanyl)-4H-1,2,4-triazol-3-yl)-1-(5-fluoro-2-pyrimidinyl)-2-propanesulfonamide and (2S)—N-(4-(2,4-dimethoxyphenyl)-5-(2-furanyl)-4H-1,2,4-triazol-3-yl)-1-(5-fluoro-2-pyrimidinyl)-2-propanesulfonamide]
  EC50: 270000 pM

## COc1cccc(OC)c1-n1c(NS(=O)(=O)[C@@H]2C[C@H](O)CN(c3cnc(Cl)c(C#N)c3)C2)nnc1-c1ccc(C)o1 (mixture of isomers) [Example 322.0, (3S,5R)-1-(6-Chloro-5-cyano-3-pyridinyl)-N-(4-(2,6-dimethoxyphenyl)-5-(5-methyl-2-furanyl)-4H-1,2,4-triazol-3-yl)-5-hydroxy-3-piperidinesulfonamide and (3R,5S)-1-(6-chloro-5-cyano-3-pyridinyl)-N-(4-(2,6-dimethoxyphenyl)-5-(5-methyl-2-furanyl)-4H-1,2,4-triazol-3-yl)-5-hydroxy-3-piperidinesulfonamide]
  EC50: 200 pM

## COc1ccnc(N2C[C@H](O)C[C@H](S(=O)(=O)Nc3nnc(-c4ccc(C)o4)n3-c3c(OC)cccc3OC)C2)n1 (mixture of isomers) [Example 324.0, (3S,5R)—N-(4-(2,6-Dimethoxyphenyl)-5-(5-methyl-2-furanyl)-4H-1,2,4-triazol-3-yl)-5-hydroxy-1-(4-methoxy-2-pyrimidinyl)-3-piperidinesulfonamide and (3R,5S)—N-(4-(2,6-dimethoxyphenyl)-5-(5-methyl-2-furanyl)-4H-1,2,4-triazol-3-yl)-5-hydroxy-1-(4-methoxy-2-pyrimidinyl)-3-piperidinesulfonamide]
  EC50: 210 pM

## COc1cccc(OC)c1-n1c(NS(=O)(=O)[C@H]2C[C@@H](O)CN(c3ncc(F)cc3C#N)C2)nnc1-c1ccc(C)o1 (mixture of isomers) [Example 330.0, (3S,5R)-1-(3-Cyano-5-fluoro-2-pyridinyl)-N-(4-(2,6-dimethoxyphenyl)-5-(5-methyl-2-furanyl)-4H-1,2,4-triazol-3-yl)-5-hydroxy-3-piperidinesulfonamide and (3R,5S)-1-(3-cyano-5-fluoro-2-pyridinyl)-N-(4-(2,6-dimethoxyphenyl)-5-(5-methyl-2-furanyl)-4H-1,2,4-triazol-3-yl)-5-hydroxy-3-piperidinesulfonamide]
  EC50: 430 pM

## COc1cccc(OC)c1-n1c(NS(=O)(=O)[C@@H]2CCCN(C(=O)N(C)C)C2)nnc1-c1ccco1.COc1cccc(OC)c1-n1c(NS(=O)(=O)[C@H]2CCCN(C(=O)N(C)C)C2)nnc1-c1ccco1 (mixture of isomers) [Example 338.0, (R)-3-(N-(4-(2,6-Dimethoxyphenyl)-5-(furan-2-yl)-4H-1,2,4-triazol-3-yl)sulfamoyl)-N,N-dimethylpiperidine-1-carboxamide and (S)-3-(N-(4-(2,6-dimethoxyphenyl)-5-(furan-2-yl)-4H-1,2,4-triazol-3-yl)sulfamoyl)-N,N-dimethylpiperidine-1-carboxamide]
  EC50: 19000 pM

## COc1cccc(OC)c1-n1c(NS(=O)(=O)[C@@H](C)Cc2ncc(Cl)cc2NC(C)=O)nnc1-c1ccco1 (racemic) [Example 13.0, N-(5-chloro-2-((2S)-2-((4-(2,6-dimethoxyphenyl)-5-(2-furanyl)-4H-1,2,4-triazol-3-yl)sulfamoyl)propyl)-3-pyridinyl)acetamide and N-(5-chloro-2-((2R)-2-((4-(2,6-dimethoxyphenyl)-5-(2-furanyl)-4H-1,2,4-triazol-3-yl)sulfamoyl)propyl)-3-pyridinyl)acetamide]
  EC50: 190 pM

## COc1cccc(OC)c1-n1c(NS(=O)(=O)[C@@H](C)Cc2ccc(Cl)cn2)nnc1-c1ccco1 (racemic) [Example 14.0, (2R)-1-(5-chloro-2-pyridinyl)-N-(4-(2,6-dimethoxyphenyl)-5-(2-furanyl)-4H-1,2,4-triazol-3-yl)-2-propanesulfonamide and (2S)-1-(5-chloro-2-pyridinyl)-N-(4-(2,6-dimethoxyphenyl)-5-(2-furanyl)-4H-1,2,4-triazol-3-yl)-2-propanesulfonamide]
  EC50: 200 pM

## COc1cccc(OC)c1-n1c(NS(=O)(=O)[C@H](C)Cc2ncc(F)cc2NC(C)=O)nnc1-c1ccco1 (racemic) [Example 28.0, N-(2-((2R)-2-((4-(2,6-dimethoxyphenyl)-5-(2-furanyl)-4H-1,2,4-triazol-3-yl)sulfamoyl)propyl)-5-fluoro-3-pyridinyl)acetamide and N-(2-((2S)-2-((4-(2,6-dimethoxyphenyl)-5-(2-furanyl)-4H-1,2,4-triazol-3-yl)sulfamoyl)propyl)-5-fluoro-3-pyridinyl)acetamide]
  EC50: 480 pM

## COCC[C@@H]([C@H](C)c1ncc(F)cn1)S(=O)(=O)Nc1nnc(-c2ccc(C)o2)n1-c1c(OC)cccc1OC (racemic) [Example 74.0]
  EC50: 540 pM

From patent publication US10736883B2, “Triazole furan compounds as agonists of the APJ receptor” (AMGEN INC., priority 2016, dated 2020)
